Experimental data as given in patent US7579488B2 (Eli Lilly and Company, priority 2003, dated 2009).
Like-named read-outs stand apart in the source and are kept apart here.

Experiments:
[1] = tested on: female DBF mice; assay: Mouse hypercalcemia assay; settings: oral gavage for 6 days
From the text: The Mouse Hypercalcemia Assay
The Mouse Hypercalcemia Assay is a six day hypercalcemia test for toxicity and selectivity.
(4) Materials and Method for the Mouse Hypercalcemia Assay:
Weanling, virus-antibody-free, five to six weeks old female DBF mice (Harlan, Indianapolis, Ind.) are used for all the studies. Animals are allowed to acclimate to local vivarium conditions for 2 days. […] The animals then are divided into groups with 4-5 mice per group. Different doses of test compounds prepared in 10% Ethanol and 90% sesame oil are administered to mice orally via gavage for 6 days. 1α-25(OH)2D3 0.5 μg/kg/d was also given to one group of mice as the positive control. […] Raw data of group differences is assessed by analysis of variance (ANOVA) using Fisher's protected least significant difference (PLSD) where the significance level was P<0.05.

[2] = tested on: IL-10; assay: IL-10 induction assay; type: cell-based; settings: Homo sapiens, PBMC
From the text: 6. The IL-10 Induction Assay
This is an in vitro efficacy assay for psoriasis, abscess and adhesion. Psoriasis involves both keratinocytes and immune cells. IL-10 is a unique cytokine because it is anti-inflammatory and immunosuppressive. This assay tells us whether a VDRM is able to function as an agonist in PBMCs ([…]) or not.
(6) Materials and Method for Human IL-10 Induction Assay:
Isolation of Peripheral Blood Mononuclear Cells (PBMCs):
B. Prepare sterile tubes with ficol.
C. Add diluted blood to tubes.
E. Discard the top layer and collect the cells from middle layer.
F. Divide all cells into four tubes and add media.
H. Aspirate off media and resuspend.
J. Centrifuge. at 1200 rpm for 10 minutes.
M. Dissolve PHA in water.
N. Plate TPA/PHA treated PBMCs in well plates.
Sample Collection and Assay:
S. Remove all the cells by centrifugation and assay the supernatant for IL-10 by immunoassay.
1) T. Perform […] using anti-human IL-10 antibody coated beads, as described by the manufacturer (Linco Research Inc., St. Charles, Mo.).

[3] = tested on: rat osteocalcin promoter; assay: OCN (osteocalcin) promoter assay; type: cell-based; settings: RG-15 (ROS 17/2.8) cells
Method: 3. The OCN (Osteocalcin) Promoter Assay
The OCN Promoter Assay is an indicator and marker for osteoporosis. […] Preferred assay results are less than 50 nM.
(3) Materials and Method for The OCN Promoter Assay:
The activation of osteocalcin by VDR ligands was evaluated in a rat osteoblast-like cell line RG-15 (ROS 17/2.8) stably expressing rat osteocalcin promoter fused with luciferase reporter gene. […] Confluent RG-15 cells maintained in DMEM/F-12 medium (3:1) containing 5% FBS, 300 μg/ml G418 and at 37° C. under 5% CO2/95% air atmosphere were trypsinized (0.25% trypsin) and plated into white opaque 96-well cell culture plates (25000 cells/well). After 24 hr, cells (in DMEM/F-12 medium+2% FBS) were treated with various concentrations of compounds, dissolved in DMSO. The final DMSO concentration remained at 0.01% (v/v). After 48 hr treatment, the medium was removed, cells were lysed with 50 μl of lysis buffer (From Luciferase reporter assay system, Roche Diagnostics, Indianapolis, Ind.) and assayed for luciferase activity using the Luciferase Reporter Gene Assay kit from Boehringer Mannheim as per manufacturer's specifications.

[4] = tested on: KERtr cells; assay: Keratinocyte proliferation assay; type: cell-based; settings: Homo sapiens, read-out: Kera. Prolif. IC50
Method: 5. The Keratinocyte Proliferation Assay
This Assay is indicative for the treatment of psoriasis.
(5) The Keratinocyte Proliferation Assay:
KERtr cells (Human skin keratinocyte transformed with a retrovirus vector, obtained from ATCC) were plated in 96-well flat-bottomed plates (3000 cells/well) in 100 μl keratinocyte serum free medium supplemented with bovine pituitary extract in the absence of EGF (Life Technologies, Rockville, Md.) and incubated at 37° C. for two days. The cells were treated with various concentrations of VDR ligands (ten-fold serial dilution from 10,000 nM to 0.1 nM in triplicate), dissolved in 100 μl keratinocyte serum free medium supplemented with bovine pituitary extract in the absence of EGF and incubated at 37° C. for 72 hr. […] Potency values (IC50) values were determined as the concentration (nM) of compound that elicited a half-maximal response.

[5] = molecular target: T1, VDR (Homo sapiens, UniProt P11473); assay: VDR CTF (Caco-2 cell co-transfection) assay; type: cell-based; settings: Caco-2 cells, pGal4-VDR-LBD co-transfection, luciferase; several values separated by /
T1 construct: the receptor expression vector pGal4-VDR-LBD (10 ng); expressed in transfected cells; host or cells: Caco-2 cells
T1 sequence (P11473 127-423 limits assumed): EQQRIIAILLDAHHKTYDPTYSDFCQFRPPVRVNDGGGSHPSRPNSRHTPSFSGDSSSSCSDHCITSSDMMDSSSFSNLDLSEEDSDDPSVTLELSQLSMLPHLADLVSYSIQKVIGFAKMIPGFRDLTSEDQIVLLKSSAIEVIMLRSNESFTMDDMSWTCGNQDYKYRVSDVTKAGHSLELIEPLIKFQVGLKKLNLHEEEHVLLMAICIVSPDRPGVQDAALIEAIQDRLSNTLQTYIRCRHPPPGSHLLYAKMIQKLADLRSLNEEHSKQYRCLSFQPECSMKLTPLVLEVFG
Method: 2. The Caco-2 Cell Co-Transfection Assay:
The Caco-2 cell assay is an indicator for the undesirable condition of hypercalcemia. This co-transfection assay is a surrogate assay for in vivo calcemic activity of VDR ligands. […] Preferred assay results are greater than 1000 nM.
(2) Materials and Method for the Caco-2 Cell Assay:
Caco-2 cells, grown in phenol red free, DMEM (Invitrogen, Carlsbad, Calif.) containing 10% charcoal-stripped FCS (Hyclone, Logan, Utah), were transfected with Fugene 6 reagent (Roche Diagnostics, Indianapolis, Ind.). Cells (5000/well) were plated 18 h before transfection in a 96 well plate. The Cells were transfected with Gal4-responsive reporter pFRLuc (150 ng, Stratagene, La Jolla Calif.) and the receptor expression vector pGal4-VDR-LBD (10 ng), along with Fugene 6 reagent (0.2 μl/well). The DNA-Fugene complex was formed by incubating the mixture for 30 min at room temperature. The cells were transfected in triplicate for 5 h, and treated with various concentrations of VDR ligands (form 0.01 nM to 10,000 nM concentration range) 18 h post-transfection. The luciferase activity was quantified using Steady-Glo reagent kit (Promega, Madison, Wis.) as per manufacturer's specifications.

[6] = molecular target: T2, RXR-VDR heterodimer (Homo sapiens, UniProt P11473); assay: RXR-VDR heterodimerization assay (SaOS-2 cells); type: cell-based; settings: Gal4-RXR-DEF/VP16-VDR-LBD luciferase reporter, several values in a cell separated by /
T2 construct: Add the Gal4-RXR-DEF and VP16-VDR-LBD; expressed in transfected cells; host or cells: SaOS-2 cells
T2 sequence (P11473 127-423 limits assumed): T1 sequence (P11473 127-423 limits assumed)
T2 sequence (P19793 201-462 partner limits assumed): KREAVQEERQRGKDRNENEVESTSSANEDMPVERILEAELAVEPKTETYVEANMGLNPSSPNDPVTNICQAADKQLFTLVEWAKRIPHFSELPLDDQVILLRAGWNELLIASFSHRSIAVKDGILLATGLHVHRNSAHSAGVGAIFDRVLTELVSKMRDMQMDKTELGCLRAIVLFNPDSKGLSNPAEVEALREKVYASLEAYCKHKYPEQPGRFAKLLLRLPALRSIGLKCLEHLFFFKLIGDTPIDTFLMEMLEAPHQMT
Method: 1. The RXR-VDR Heterodimer Assay:
This assay provides the VDR activity of a test compound.
(1) Materials and Method for RXR-VDR Heterodimerization Assay:
Luciferase Assay Reagent: • Use Steady-Glo Luciferase Reagent from Promega (Cat #E2550) Consists of: a. E2533 Assay Substrate, lyopholized product and b. E2543 Assay Buffer. • Thaw at room temperature • Store Cell Harvesting Aspirate media from culture flask, rinse cells with HBSS and aspirate. Add trypsin and incubate. When cells appear detached, resuspend cells in growth media. Transfer into a new flask with fresh growth media for passaging the cells. Plate well plates and two extra plates A. Cell Count Mix the cell suspension using pipette Use Hematocytometer to count the cells Load cell suspension onto the hemocytometer chamber Count cells. […] In sterile flask add cell suspension to plating media. Mix. Add cells/well. Place the cells in the incubator. Cells should be about 75% confluent prior to transfection. DAY 2: Transfection Step 1: DNA and Media Add plain DMEM media to tubes for mixing the DNA Add the Reporter gene pFR-LUC Add the Gal4-RXR-DEF and VP16-VDR-LBD Step 2: FuGENE and Media Prepare plain DMEM media in a ubes for mixing FuGENE Add FuGENE 6 Transfection Reagent Incubate Step 3: FuGENE, DNA and Media Complex Add FuGENE Media complex from step 2 to DNA Media complex from step 1 Incubate Step 4: FuGENE, DNA and Media Complex to-well plate Add FuGENE-DNA-Media complex from step 3 to each plate Incubate. […] Day 4: Luciferase Assay Read the plates after drug treatment Remove part of media from all the wells and leave remainder Add Steady-Glo Luciferase Reagent mixture/wells Incubate Count each well using a Luminescence counter, Top Count NXT by Packard
Set a delay between plates to reduce the background.

[7] = comparison compounds, human PBMCs
[8] = Rattus norvegicus, comparison compounds
[9] = TPA/PHA stimulated human PBMCs, IL-10 in supernatant by immunoassay, several values separated by /
[10] = 72 h, BrdU incorporation, several values separated by /
[11] = serum ionized calcium 6 hours after last dosing
[12] = Rattus norvegicus, 48 h, 48 hr treatment, luciferase, several values separated by /
[13] = 48 hr treatment, luciferase, several values separated by /

SMILES | Mouse Hypercal ([1]; comparison compounds) | IC50 [2, 7] | EC50 [3, 8] | IC50 ([4]; comparison compounds) | IC50 [2, 9] | IC50 [4, 10] | EC50 [5] | Mouse Hypercal [1, 11] | EC50 [3, 12] | EC50 [3, 13] | EC50 [6]
CCC(CC)(c1ccc(OCC(O)CO)c(C)c1)c1ccc(OCC(O)C(C)(C)C)c(C)c1 (stereo not shown) [BB, 3-(4-{1-Ethyl-1-[4-(2-hydroxy-3,3-dimethyl-butoxy)-3-methyl-phenyl]-propyl}-2-methyl-phenoxy)-propane-1,2-diol, reference compound] | 20 µg/kg/day | 28 nM | 8.24 nM | 10 nM | – | – | – | – | – | – | –
CCC(CC)(c1ccc(OCC(=O)C(C)(C)C)c(C)c1)c1ccc(OCC(=O)C(C)(C)C)c(C)c1 [DD, reference compound] | 1000 µg/kg/day | – | 31.1 nM | 1060 nM | – | – | – | – | – | – | –
CCC(CC)(c1ccc(OCC(=O)C(C)(C)C)c(C(C)C)c1)c1cc2cc(C(=O)O)ccc2o1 [Ex 17] | – | – | – | – | 95 nM | 13 nM | 589 nM | – | – | – | –
CCC(CC)(c1ccc(OCC(=O)C(C)(C)C)c(C)c1)c1cc2ccc(C(=O)O)cc2o1 [Ex 18, 2-{1-[4-(3,3-dimethyl-2-oxo-butoxy)-3-methyl-phenyl]-1-ethyl-propyl}-benzofuran-6-carboxylic acid] | – | – | – | – | – | 25 nM | 472 nM | >300 µg/kg/day | 2 nM | – | –
CCC(CC)(c1ccc(OCC(O)C(C)(C)C)c(C)c1)c1cc2ccc(C(=O)O)cc2o1 (stereo not shown) [Ex 19, 2-{1-Ethyl-1-[4-(2-hydroxy-3,3-dimethyl-butoxy)-3-methyl-phenyl]-propyl}-benzofuran-6-carboxylic acid] | – | – | – | – | 34 nM | 8 nM | 620 nM | – | 1.4 nM | 0.9 nM | –
CCC(CC)(c1ccc(OCC(=O)C(C)(C)C)c(C)c1)c1cc(C)c2oc(C(=O)NCC(=O)O)cc2c1 [Ex 28, [(5-{1-[4-(3,3-dimethyl-2-oxo-butoxy)-3-methyl-phenyl]-1-ethyl-propyl}-7-methyl-benzofuran-2-carbonyl)-amino]-acetic acid] | – | – | – | – | – | 11 nM | – | >1000 µg/kg/day | 4 nM | – | –
CCC(CC)(c1ccc(OCC(O)C(C)(C)C)c(C)c1)c1ccc2oc(C(=O)O)cc2c1 (stereo not shown) [Ex 31, 5-{1-ethyl-1-[4-(2-hydroxy-3,3-dimethyl-butoxy)-3-methyl-phenyl]-propyl}-benzofuran-2-carboxylic acid] | – | – | – | – | 5.4 nM | 1 nM | 279 nM | – | 0.5 nM | – | 12 nM
CCC(CC)(c1ccc(OCC(=O)C(C)(C)C)c(C)c1)c1ccc2oc(C(=O)O)c(C)c2c1 [Ex 34, 5-{1-[4-(3,3-Dimethyl-2-oxo-butoxy)-3-methyl-phenyl]-1-ethyl-propyl}-3-methyl-benzofuran-2-carboxylic acid] | – | – | – | – | – | – | 896 nM | >3000 µg/kg/day | 13 nM | 21 nM | –
CCC(CC)(c1ccc(OCC(=O)C(C)(C)C)c(C)c1)c1ccc2oc(C(=O)NCC(=O)O)c(C)c2c1 [Ex 38, [(5-{1-[4-(3,3-dimethyl-2-oxo-butoxy)-3-methyl-phenyl]-1-ethyl-propyl}-3-methyl-benzofuran-2-carbonyl)-amino]-acetic acid] | – | – | – | – | – | 22 nM | 314 nM | >30 µg/kg/day | 0.5 nM | – | –
CCC(CC)(c1ccc(OCC(=O)C(C)(C)C)c(C)c1)c1cc2cc(C(=O)O)ccc2o1 [Ex. 2] | – | – | – | – | – | 12 nM | 677 nM | >1000 µg/kg/day | 3 nM | – | 75 nM
C=C1/C(=C\C=C2/CCC[C@]3(C)[C@@H]([C@H](C)/C=C/[C@@H](O)C4CC4)CC[C@@H]23)C[C@@H](O)C[C@@H]1O [FF, calcipotriol, reference compound] | – | 0.5 nM | 0.28 nM | 103 nM | – | – | – | – | – | – | –
